Measurements from patent publication US20060037100A1, “Fungal resistant transgenic pepper plants and their production method” (priority 2004, published 2006).

Tested on: pepper cells
Experiment: Hygromycin sensitivity of pepper cells (growth of hypocotyl explants on SIM medium)
Assay type: cell-based, Capsicum annuum L. (pepper)
Experimental: The sensitivity of untransformed wild type (WT) and transformed (T) hypocotyl explants to hygromycin B was examined by using shoot induction medium containing 0, 5, 10, 20, 50 mg/l of hygromycin B (A). Fresh weight (mg) of hypocotyl explants growing on the medium containing hygromycin B (B).
Selection of transgenic cells was preformed in medium containing 20 mg/l hygromycin B in all experiments.

With `CN[C@H]1C[C@@H](N)[C@H](O)[C@@H](O[C@@H]2O[C@H](CO)[C@H](O)[C@@H]3OC4(O[C@H]23)O[C@H]([C@@H](N)CO)[C@H](O)[C@H](O)[C@H]4O)[C@@H]1O` (some centres unmarked) [hygromycin B] the “effect on the growth of pepper cells” value (hygromycin B 5 mg/l in SIM medium, after 14 days of culture) was “severe inhibitory effect” and the “hygromycin B concentration up to which transgenic cells showed resistance” value (transgenic (transformed) pepper cells on SIM medium) was “up to 50 mg/l”.
